# Source: US8314112B2 (Novartis AG, priority 2008, dated 2012)
# Target: T1, human ALK5 (kinase domain, ALK5 T204D) (Homo sapiens, UniProt P36897, T204D)
# T1 construct: The kinase domain of human ALK5 (amino acids 200-503); made in house; host or cells: insect cells (baculovirus)
# T1 sequence (P36897 200-503 T204D): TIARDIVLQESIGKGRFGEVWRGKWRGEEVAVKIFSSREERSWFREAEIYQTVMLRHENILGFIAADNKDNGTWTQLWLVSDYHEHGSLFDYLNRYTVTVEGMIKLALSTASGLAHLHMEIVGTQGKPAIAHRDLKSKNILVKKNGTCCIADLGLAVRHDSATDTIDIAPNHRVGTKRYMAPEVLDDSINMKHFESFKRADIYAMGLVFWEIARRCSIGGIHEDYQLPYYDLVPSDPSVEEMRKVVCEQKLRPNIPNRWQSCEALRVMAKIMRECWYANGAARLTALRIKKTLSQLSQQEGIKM
# Experiment: ALK5 kinase assay ([33P] phosphate incorporation into casein)
# Format: biochemical
# Conditions: casein substrate, 1 μM unlabelled ATP
# Description: The kinase activity of ALK5 is assessed by measuring radiolabelled phosphate [33P] incorporation in to the generic substrate, casein. The kinase domain of human ALK5 (amino acids 200-503) is fused to an N-terminal histidine tag. The kinase activity of ALK5 is rendered constitutive via point mutation at amino acid 204 (threonine to aspartate modification, ALK5 T204D) and the kinase construct is engineered to be expressed from a baculovirus expression construct in insect cells. The purified, recombinantly-expressed histidine-tagged ALK5 T204D protein is dissolved at 5.4 mg/ml in 50 mM Tris-HCl pH 8.0, 150 mM NaCl, 5 mM DTT. ALK5 T204D is dissolved to 2.5 μg/ml in assay buffer (Assay buffer: 20 mM Tris-HCl pH 7.4, 10 mM MgCl2, 2 mM MnCl2) on the day of use.
# Test compounds and reference compounds are dissolved in assay buffer without DTT containing 5% (v/v) DMSO. Stock solutions of test and reference compounds are diluted in assay buffer with DTT (1.25 mM) containing 4.5% (v/v) DMSO. 10 μl of test or reference compound are added to the appropriate wells of 96 well U-bottomed plate. Total enzyme activity is determined by measuring ALK5 T204D activity in the absence of ALK5 kinase inhibitor reference compounds. Non-specific binding (NSB) is determined by measuring the activity of ALK5 T204D in the presence of ALK5 kinase inhibitor reference compounds. 10 μl of dephosphorylated casein stock solution (dephosphorylated casein is dissolved in ddH2O at 20 mg/ml) is added per well (200 μg/well final assay concentration). 20 μl of ALK5 T204D (2.5 μg/ml solution) is added per well (50 ng/well final assay concentration). The plates are left to incubate at room temperature for 10 minutes.
# 10 μl of ATP mix is added to the well to initiate the reaction (0.66 nM [^33P]ATP/1 μM unlabelled ATP/well final assay concentration). The ATP mix is prepared as follows, unlabelled ATP (3 mM) is dissolved in ddH2O and pH adjusted to 7.4. The stock concentration of [^33P]ATP is 10 μCi/μl. The appropriate volume of [^33P]ATP is added to unlabelled ATP solution such that the final assay concentration per well is 0.1 μCi. Following addition of the ATP mix, the plates are incubated at room temperature for 50 minutes. The kinase reaction is terminated by the addition of 50 μL Stop Buffer (20 mM Tris-HCl pH 7.4, 10 mM EDTA).
# 75 μl/well from the reaction plate is transferred to a Multiscreen-IP plate (MultiScreen-IP plates are prepared by added 50 μL of 70% (v/v) ethanol per well and incubated for 5 minutes at room temperature. The ethanol is removed by aspiration via a MultiScreen HTS Vaccum Manifold unit (Millipore, Cat no: MSVMHT500). The plates are washed twice by adding 200 μl/well ddH2O). The MultiScreen-IP plate is incubated at room temperature for 30 minutes to allowing binding of casein to the plate. The MultiScreen-IP plates are washed three times by adding 200 μl/well 100 mM phosphoric acid solution and the gasket is carefully removed from the back of the MultiScreen-IP plate and the plate dried in the oven for 30 minutes. The MultiScreen-IP plate is backsealed, 50 μL of Microscint™20 is added, then the plates are topsealed and radiolabelled casein detected and quantified on a TopCount™ plate-reader using the ^33P scintillation protocol.
row,Compound,IC50 [nM]
1,"Cc1cccc(-c2nc(-c3cncc(-c4ccc(N5CCCCC5)cc4)c3)c3cc[nH]c3n2)n1 [Example 17, 2-(6-Methyl-pyridin-2-yl)-4-[5-(4-piperidin-1-yl-phenyl)-pyridin-3-yl]-7H-pyrrolo[2,3-d]pyrimidine]",929
2,"Cc1cccc(-c2nc(-c3cncc(-c4cccc(N5CCCC5)c4)c3)c3cc[nH]c3n2)n1 [Example 18, 2-(6-Methyl-pyridin-2-yl)-4-[5-(3-pyrrolidin-1-yl-phenyl)-pyridin-3-yl]-7H-pyrrolo[2,3-d]pyrimidine]",172
3,"Cc1cccc(-c2nc(-c3cncc(-c4ccc(CN5CCN(C)CC5)cc4)c3)c3cc[nH]c3n2)n1 [Example 20, 4-{5-[4-(4-Methyl-piperazin-1-ylmethyl)-phenyl]-pyridin-3-yl}-2-(6-methyl-pyridin-2-yl)-7H-pyrrolo[2,3-d]pyrimidine]",45
4,"Cc1cccc(-c2nc(-c3cncc(-c4ccncc4)c3)c3cc[nH]c3n2)n1 [Example 21, 5-[2-(6-Methyl-pyridin-2-yl)-7H-pyrrolo[2,3-d]pyrimidin-4-yl]-[3,4′]bipyridinyl]",84
5,"Cc1cccc(-c2nc(-c3cncc(-c4cccnc4)c3)c3cc[nH]c3n2)n1 [Example 22, 5-[2-(6-Methyl-pyridin-2-yl)-7H-pyrrolo[2,3-d]pyrimidin-4-yl]-[3,3′]bipyridinyl]",44
6,"Cc1cccc(-c2nc(-c3cncc(-c4cccc(O)c4)c3)c3cc[nH]c3n2)n1 [Example 23, 3-{5-[2-(6-Methyl-pyridin-2-yl)-7H-pyrrolo[2,3-d]pyrimidin-4-yl]-pyridin-3-yl}-phenol]",14
7,"Cc1cccc(-c2nc(-c3cncc(-c4ccccc4F)c3)c3cc[nH]c3n2)n1 [Example 24, 4-[5-(2-Fluoro-phenyl)-pyridin-3-yl]-2-(6-methyl-pyridin-2-yl)-7H-pyrrolo[2,3-d]pyrimidine]",34
8,"Cc1cccc(-c2nc(-c3cncc(C(=O)NCCCN4CCN(C)CC4)c3)c3cc[nH]c3n2)n1 [Example 25, N-[3-(4-Methyl-piperazin-1-yl)-propyl]-5-[2-(6-methyl-pyridin-2-yl)-7H-pyrrolo[2,3-d]pyrimidin-4-yl]-nicotinamide]",223
9,"Cc1cccc(-c2nc(-c3cncc(C(=O)NCCCO)c3)c3cc[nH]c3n2)n1 [Example 26, N-(3-Hydroxy-propyl)-5-[2-(6-methyl-pyridin-2-yl)-7H-pyrrolo[2,3-d]pyrimidin-4-yl]-nicotinamide]",465
10,"CCC(=O)Nc1cncc(-c2nc(-c3cccc(C)n3)nc3[nH]ccc23)c1 [Example 27, N-{5-[2-(6-Methyl-pyridin-2-yl)-7H-pyrrolo[2,3-d]pyrimidin-4-yl]-pyridin-3-yl}-propionamide]",723
11,"Cc1cccc(-c2nc(-c3cnc4ccccc4c3)c3cc[nH]c3n2)n1 [Example 28, 3-[2-(6-Methyl-pyridin-2-yl)-7H-pyrrolo[2,3-d]pyrimidin-4-yl]-quinoline]",184
12,"Cc1cccc(-c2nc(-c3cncc4ccccc34)c3cc[nH]c3n2)n1 [Example 29, 4-[2-(6-Methyl-pyridin-2-yl)-7H-pyrrolo[2,3-d]pyrimidin-4-yl]-isoquinoline]",11
13,"Cc1cccc(-c2nc(-c3cncc(NC(=O)CCCN(C)C)c3)c3cc[nH]c3n2)n1 [Example 30, 4-Dimethylamino-N-{5-[2-(6-methyl-pyridin-2-yl)-7H-pyrrolo[2,3-d]pyrimidin-4-yl]-pyridin-3-yl}-butyramide]",64
14,"Cc1cccc(-c2nc(-c3cncc(NC(=O)CCN(C)C)c3)c3cc[nH]c3n2)n1 [Example 31, 3-Dimethylamino-N-{5-[2-(6-methyl-pyridin-2-yl)-7H-pyrrolo[2,3-d]pyrimidin-4-yl]-pyridin-3-yl}-propionamide]",85
15,"Cc1cccc(-c2nc(-c3cncc(-c4ccccc4C)c3)c3cc[nH]c3n2)n1 [Example 32, 2-(6-Methyl-pyridin-2-yl)-4-(5-o-tolyl-pyridin-3-yl)-7H-pyrrolo[2,3-d]pyrimidine]",762
16,"Cc1cccc(-c2nc(-c3cncc(-c4ccccc4Cl)c3)c3cc[nH]c3n2)n1 [Example 33, 4-[5-(2-Chloro-phenyl)-pyridin-3-yl]-2-(6-methyl-pyridin-2-yl)-7H-pyrrolo[2,3-d]pyrimidine]",90
17,"Cc1cccc(-c2nc(-c3cncc(-c4cccc(CN5CCN(C(C)C)CC5)c4)c3)c3cc[nH]c3n2)n1 [Example 34, 4-{5-[3-(4-Isopropyl-piperazin-1-ylmethyl)-phenyl]-pyridin-3-yl}-2-(6-methyl-pyridin-2-yl)-7H-pyrrolo[2,3-d]pyrimidine]",51
18,"Cc1cccc(-c2nc(-c3cncc(-c4ccc(CN5CCN(C(C)C)CC5)cc4)c3)c3cc[nH]c3n2)n1 [Example 35, 4-{5-[4-(4-Isopropyl-piperazin-1-ylmethyl)-phenyl]-pyridin-3-yl}-2-(6-methyl-pyridin-2-yl)-7H-pyrrolo[2,3-d]pyrimidine]",44
19,"CNCc1cccc(-c2cncc(-c3nc(-c4cccc(C)n4)nc4[nH]ccc34)c2)c1 [Example 36, Methyl-(3-{5-[2-(6-methyl-pyridin-2-yl)-7H-pyrrolo[2,3-d]pyrimidin-4-yl]-pyridin-3-yl}-benzyl)-amine]",8
20,"Cc1cccc(-c2nc(-c3cncc(-c4cccc(CN(C)C)c4)c3)c3cc[nH]c3n2)n1 [Example 37, Dimethyl-(3-{5-[2-(6-methyl-pyridin-2-yl)-7H-pyrrolo[2,3-d]pyrimidin-4-yl]-pyridin-3-yl}-benzyl)-amine]",33
21,"Cc1cccc(-c2nc(-c3cncc(-c4ccc(CN(C)C)cc4)c3)c3cc[nH]c3n2)n1 [Example 38, Dimethyl-(4-{5-[2-(6-methyl-pyridin-2-yl)-7H-pyrrolo[2,3-d]pyrimidin-4-yl]-pyridin-3-yl}-benzyl)-amine]",12
22,"CNCc1ccc(-c2cncc(-c3nc(-c4cccc(C)n4)nc4[nH]ccc34)c2)cc1 [Example 39, Methyl-(4-{5-[2-(6-methyl-pyridin-2-yl)-7H-pyrrolo[2,3-d]pyrimidin-4-yl]-pyridin-3-yl}-benzyl)-amine]",6
23,"Cc1cccc(-c2nc(-c3cncc(-c4ccc(C(=O)N5CCNCC5)cc4)c3)c3cc[nH]c3n2)n1 [Example 40, (4-{5-[2-(6-Methyl-pyridin-2-yl)-7H-pyrrolo[2,3-d]pyrimidin-4-yl]-pyridin-3-yl}-phenyl)-piperazin-1-yl-methanone]",3
24,"Cc1cccc(-c2nc(-c3cncc(N4CCN(C)CC4)c3)c3cc[nH]c3n2)n1 [Example 41, 4-[5-(4-Methyl-piperazin-1-yl)-pyridin-3-yl]-2-(6-methyl-pyridin-2-yl)-7H-pyrrolo[2,3-d]pyrimidine]",130
25,"CN1CCN(C(=O)c2ccc(-c3cncc(-c4nc(-c5ccccn5)nc5[nH]ccc45)c3)cc2)CC1 [Example 42, (4-Methyl-piperazin-1-yl)-{4-[5-(2-pyridin-2-yl-7H-pyrrolo[2,3-d]pyrimidin-4-yl)-pyridin-3-yl]-phenyl}-methanone]",17
26,"CN1CCN(Cc2ccc(-c3cncc(-c4nc(-c5ccccn5)nc5[nH]ccc45)c3)cc2)CC1 [Example 43, 4-{5-[4-(4-Methyl-piperazin-1-ylmethyl)-phenyl]-pyridin-3-yl}-2-pyridin-2-yl-7H-pyrrolo[2,3-d]pyrimidine]",6
